Data reported in ChEMBL document CHEMBL4402558, “Designing Chimeric Molecules for Drug Discovery by Leveraging Chemical Biology” (J Med Chem, 2020).

Species: Homo sapiens
Assay: Antitumour activity against human DLBCL patients assessed as response rate co-treatment with rituximab relative to control
Format: functional

Compound: Cn1c(CCCC(=O)O)nc2cc(N(CCCl)CCCl)ccc21
- Activity: 18%
